Laboratory results from patent US20120245154A1, “SUBSTITUTED AMINOTHIAZINE DERIVATIVE” (SHIONOGI & CO., LTD., priority 2009, published 2012).

Tests used:
[1] = biological target: T1, hERG channel (IKr) (Homo sapiens, UniProt Q12809); experiment: hERG test; type: cell-based; conditions: HEK293 cells expressing hERG channel, pH 7.4, whole cell patch clamp, concentration not given, read-out: % inhibition relative to the tail peak current (IKr)
T1 construct: expressed in transfected cells; host or cells: HEK293
Source text: For the purpose of assessing risk of an electrocardiogram QT interval prolongation, effects on delayed rectifier K+ current (IKr), which plays an important role in the ventricular repolarization process, was studied using HEK293 cells expressing human ether-a-go-go related gene (hERG) channel.
After a cell was retained at a membrane potential of −80 mV by whole cell patch clamp method using an automated patch clamp system (PatchXpress 7000A, Axon Instruments Inc.), IKr induced by depolarization pulse stimulation at +50 mV for 2 seconds and, further, repolarization pulse stimulation at −50 mV for 2 seconds was recorded. […] From the recording IKr, an absolute value of the tail peak current was measured based on the current value at the resting membrane potential using an analysis software (DataXpress vet.1, Molecular Devices Corporation). Further, the % inhibition relative to the tail peak current before application of the test substance was calculated, and compared with the vehicle-applied group (0.1% dimethyl sulfoxide solution) to assess influence of the test substance on IKr.

[2] = Brain distribution studies; type: in vivo; conditions: brain/plasma, iv; rat, intravenously 0.5 mg/mL/kg, 30 minutes later; read-out: brain Kp value (area ratio brain/plasma)
Procedure: Compound of the present invention was intravenously administered to a rat at 0.5 mg/mL/kg dosage. […] The brain was enucleated and 20-25% of homogenate thereof was prepared with distilled water. The obtained blood was used as plasma after centrifuging. To the brain sample was added the control plasma at 1:1. To the plasma samples was added the control brains at 1:1. Each sample was measured using LC/MS/MS. The obtained area ratio (a brain/plasma) was used for the brain Kp value.

T1 sequence (Q12809 whole entry): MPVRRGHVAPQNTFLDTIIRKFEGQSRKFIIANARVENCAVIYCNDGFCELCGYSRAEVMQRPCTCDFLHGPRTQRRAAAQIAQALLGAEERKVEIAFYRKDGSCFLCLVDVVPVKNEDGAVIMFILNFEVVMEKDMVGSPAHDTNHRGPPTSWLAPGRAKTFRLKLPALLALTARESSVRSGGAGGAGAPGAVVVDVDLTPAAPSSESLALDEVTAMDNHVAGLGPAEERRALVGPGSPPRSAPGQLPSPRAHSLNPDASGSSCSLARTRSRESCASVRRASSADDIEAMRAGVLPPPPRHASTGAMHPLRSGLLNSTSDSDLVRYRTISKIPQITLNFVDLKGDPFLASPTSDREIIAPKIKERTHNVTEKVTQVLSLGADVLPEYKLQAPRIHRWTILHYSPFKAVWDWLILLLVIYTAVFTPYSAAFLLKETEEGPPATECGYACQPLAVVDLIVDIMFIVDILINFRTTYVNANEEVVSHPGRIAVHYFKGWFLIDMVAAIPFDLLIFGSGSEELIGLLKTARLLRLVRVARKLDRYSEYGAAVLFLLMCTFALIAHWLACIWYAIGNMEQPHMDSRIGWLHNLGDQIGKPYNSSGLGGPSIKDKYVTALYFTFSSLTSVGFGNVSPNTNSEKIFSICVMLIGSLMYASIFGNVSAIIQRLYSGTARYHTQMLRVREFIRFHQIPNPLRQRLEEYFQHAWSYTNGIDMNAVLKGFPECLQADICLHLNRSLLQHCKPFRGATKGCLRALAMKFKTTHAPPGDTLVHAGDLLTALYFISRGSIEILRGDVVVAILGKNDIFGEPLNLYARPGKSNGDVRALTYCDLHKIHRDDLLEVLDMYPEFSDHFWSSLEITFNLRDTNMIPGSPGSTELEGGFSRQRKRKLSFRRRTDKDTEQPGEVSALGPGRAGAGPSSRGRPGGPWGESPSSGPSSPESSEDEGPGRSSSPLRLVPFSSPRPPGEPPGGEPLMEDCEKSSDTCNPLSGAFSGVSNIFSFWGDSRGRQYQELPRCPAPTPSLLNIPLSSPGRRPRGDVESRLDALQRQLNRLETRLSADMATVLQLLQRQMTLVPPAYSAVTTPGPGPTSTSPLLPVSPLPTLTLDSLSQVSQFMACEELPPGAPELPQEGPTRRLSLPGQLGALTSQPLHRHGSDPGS

Row | Kp at 0.5 h [2] | Compound | inhibition at 10 min [1] [%]
1 |  | Cc1cnc(C(=O)Nc2ccc(F)c([C@]3(C)C=C(C(F)F)SC(N)=N3)c2)cn1 [Compound I-14] | 3.8
2 | 2.5 | CC(C)C1=C[C@@](C)(c2cc(NC(=O)c3ccc(C#N)cn3)ccc2F)N=C(N)S1 [Compound I-54] | 
